From US5206435A, “4-amino-2-cyclopentene-1-methanol” (priority 1988, dated 1993)
Entries after “also recorded” stand apart in the source; their conditions may differ.

How the values were obtained:
HIV [1] = experiment: anti-HIV activity in MT4 cells; format: cell-based; settings: Human immunodeficiency virus 1, average of 10 determinations
Procedure: (1S,4R)-cis-4-[2-amino-6-(cyclopropylamino)-9H-purin-9-yl]-2-cyclopentene-1-methanol was tested for anti-HIV activity in MT4 cells according to the method described by Averett, D. R., J. Virol.

HIV [2] = experiment: activity against HIV infections (general statement)
HBV [3] = experiment: activity against HBV infections (general statement); parameters: species or system hepatitis B virus
[4] = system: bone marrow progenitor cells; experiment: toxicity against bone marrow progenitor cells; format: cell-based; settings: compared with 3'-azido-3'-deoxythymidine (zidovudine)
[5] = penetration of the blood-brain barrier upon administration; format: in vivo
HBV [6] = experiment: anti-HBV activity in the human HBV producer cell line of HepG2, 2.2.15; format: cell-based, hepatitis B virus; settings: at 100 μM; HepG2, 2.2.15 cells
Procedure: The human HBV producer cell line of HepG2,2.2.15, described and characterised by Sells et al., PNAS 84: 1005, 1987 and J.Virol.
To test compounds for anti-HBV activity, monolayer cultures were treated with the test compound: 50-200 μM for ten days. Supernatant media containing extracellular virion DNA (Dane particles) were harvested on days three, six and ten, treated with proteinase K (1 mg/mL) and sodium dodecyl sulfate (1%), and incubated at 50° C. for one hour. DNA was extracted with equal volumes of phenol followed by chloroform and then precipitated by ammonium acetate and propanol. The DNA precipitate was dissolved and collected on nitrocellulose using the procedure of Schleicher and Schuell (S&S, 10 Optical Ave., Keene, N.H. 03431, Publication #700, 1987), and treated as described by Southern, J.Mol.Biol., 98, 503, 1975. […] After precipitation by ammonium acetate and propanol, the intracellular DNA precipitate was dissolved, cut by restriction endonuclease, Hind III, applied to agarose gel and then treated as described by Southern to determine the quantity of replicative intermediate forms. The antiviral effect of the drug was determined by measuring at least a 100-fold reduction of the amount of Dane particles extruded into the culture medium and a similar decrease in the intracellular replicative intermediates.

SMILES: Nc1nc(NC2CC2)c2ncn([C@H]3C=C[C@@H](CO)C3)c2n1 [Compound 1, (1S,4R)-cis-4-[2-amino-6-(cyclopropylamino)-9H-purin-9-yl]-2-cyclopentene-1-methanol]
- IC50 (HIV [1]): 4 ± 1.4 µM
- activity against HIV infections (HIV [2]): especially potent activity; also recorded: exceptionally potent activity
- activity against HBV infections (HBV [3]): especially potent activity; also recorded: exceptionally potent activity
- toxicity against bone marrow progenitor cells [4]: significantly lower toxicity
- blood-brain barrier penetration [5]: capable of penetrating the blood-brain barrier
- levels of the compounds or active metabolites in the central nervous system [5]: high levels

SMILES: CN(c1nc(N)nc2c1ncn2[C@H]1C=C[C@@H](CO)C1)C1CC1 [Compound 3, (1S,4R)-cis-4-[2-amino-6-(N-cyclopropyl-N-methylamino)-9H-purin-9-yl]-2-cyclopentene-1-methanol]
- anti-HBV activity (HBV [6]): potent anti-HBV activity
- activity against HIV infections (HIV [2]): especially potent activity
- activity against HBV infections (HBV [3]): especially potent activity
- blood-brain barrier penetration [5]: capable of penetrating the blood-brain barrier
- levels of the compounds or active metabolites in the central nervous system [5]: high levels
